Assays:
Assay in all cases: combination Emax (second highest fraction inhibited in the dose matrix, 72 h); higher = more inhibition; extreme values may be limits of the assay
[1] = system: CAL-62 (Thyroid Gland Carcinoma)
Outline: (§1)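 After 24 hours at 37°C and 5% CO2 in 1536-well plates, cells in DMEM/F12 or RPMI plus 10% FBS received two-drug dose matrices for 72 hours. Viability came from CellTiter-Glo 2.0 luminescence and was scaled as inhibition, anchored at 0 by vehicle wells and at 1 by blank wells. Combination Emax is taken as the second-highest inhibition in the matrix, and Bliss excess as the observed combination effect less EA + EB − EA·EB, with EA and EB the single-agent effects.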

[2] = system: HSC-39 (Gastric Carcinoma)
Outline: as §1

[3] = system: IST-MES1 (Mesothelioma)
Outline: as §1

[4] = system: L-1236 (Hodgkin's Lymphoma)
Outline: as §1

[5] = system: LK-2 (Squamous Cell Lung Carcinoma)
Outline: as §1

[6] = system: MFE-280 (Endometrial Carcinoma)
Outline: as §1

[7] = system: MKN45 (Gastric Carcinoma)
Outline: as §1

[8] = system: NB12 (Neuroblastoma)
Outline: as §1

[9] = system: NCI-H2342 (Lung Adenocarcinoma)
Outline: as §1

[10] = system: OVMIU (Ovarian Carcinoma)
Outline: as §1

[11] = system: PANC-03-27 (Pancreatic Carcinoma)
Outline: as §1

[12] = system: PC-3_[JPC-3] (Lung Adenocarcinoma)
Outline: as §1

[13] = system: PSN1 (Pancreatic Carcinoma)
Outline: as §1

[14] = system: REH (B-Lymphoblastic Leukemia)
Outline: as §1

[15] = system: RKN (Other Solid Carcinomas)
Outline: as §1

[16] = system: SHP-77 (Small Cell Lung Carcinoma)
Outline: as §1

[17] = system: SK-MEL-2 (Melanoma)
Outline: as §1

[18] = system: SK-PN-DW (Other Solid Carcinomas)
Outline: as §1

[19] = system: TE-8 (Esophageal Squamous Cell Carcinoma)
Outline: as §1

[20] = system: VAL (B-Cell Non-Hodgkin's Lymphoma)
Outline: as §1

For N#Cc1cnc(Nc2cc(NC[C@H]3CNCCO3)c(C(F)(F)F)cn2)cn1 [SRA737] + O=c1[nH]cc(F)c(=O)[nH]1 [5-Fluorouracil] (first compound max 10 µM, 7x7, partner max 20 µM), the “combination Emax” value [1] was 0.371, the “combination Emax” value [2] was 1 and the “combination Emax” value [3] was 0.288. For the same molecule, the “combination Emax” value [4] was 0.94, the “combination Emax” value [5] was 0.686 and the “combination Emax” value [6] was 0.252. For the same molecule, the “combination Emax” value [7] was 0.697, the “combination Emax” value [8] was 0.173 and the “combination Emax” value [9] was 0.1. The “combination Emax” value [10] was 0.413, the “combination Emax” value [11] was 0.725 and the “combination Emax” value [12] was 0.102. For the same molecule, the “combination Emax” value [13] was 0.748, the “combination Emax” value [14] was 0.798 and the “combination Emax” value [15] was 0.344. The “combination Emax” value [16] was 0.786, the “combination Emax” value [17] was 0.113 and the “combination Emax” value [18] was 0.956. The “combination Emax” value [19] was 0.413 and the “combination Emax” value [20] was 0.775.

With Cc1nc(-c2cn3c(n2)-c2ccc(-c4cnn(C(C)(C)C(N)=O)c4)cc2OCC3)n(C(C)C)n1 [Taselisib] + O=C(Nc1ccc2[nH]nc(-c3ccncc3)c2c1)[C@@H]1CCN(CC(=O)N2CCN(c3ccc(-c4ncccn4)cc3)CC2)C1 [SCH772984] (first compound max 10 µM, 7x7, partner max 5 µM) the “combination Emax” value [1] was 0.637, the “combination Emax” value [2] was 0.985 and the “combination Emax” value [3] was 0.516. The “combination Emax” value [4] was 0.722, the “combination Emax” value [5] was 0.613 and the “combination Emax” value [6] was 0.839. The “combination Emax” value [7] was 0.798, the “combination Emax” value [8] was 0.684 and the “combination Emax” value [9] was 0.431. For the same molecule, the “combination Emax” value [10] was 0.904, the “combination Emax” value [11] was 0.885 and the “combination Emax” value [12] was 0.665. The “combination Emax” value [13] was 0.946, the “combination Emax” value [14] was 0.477 and the “combination Emax” value [15] was 0.57. For the same molecule, the “combination Emax” value [16] was 0.387, the “combination Emax” value [17] was 0.968 and the “combination Emax” value [18] was 0.609. For the same molecule, the “combination Emax” value [19] was 0.758 and the “combination Emax” value [20] was 0.6.

With O=C(c1cc(Cc2n[nH]c(=O)c3ccccc23)ccc1F)N1CCN(C(=O)C2CC2)CC1 [Olaparib] + COc1nnc2ccc(N3CCC(c4ccc(OCCN5CCN(C)C(=O)[C@H]5C)cc4)CC3)nn12 [AZD5153] (first compound max 10 µM, 7x7, partner max 1 µM) the “combination Emax” value [1] was 0.69, the “combination Emax” value [2] was 0.762 and the “combination Emax” value [3] was 0.611. The “combination Emax” value [4] was 0.96, the “combination Emax” value [5] was 0.372 and the “combination Emax” value [6] was 0.397. For the same molecule, the “combination Emax” value [7] was 0.409, the “combination Emax” value [8] was 0.782 and the “combination Emax” value [9] was 0.289. The “combination Emax” value [10] was 0.603, the “combination Emax” value [11] was 0.196 and the “combination Emax” value [12] was 0.182. The “combination Emax” value [13] was 0.429, the “combination Emax” value [14] was 0.762 and the “combination Emax” value [15] was 0.412. The “combination Emax” value [16] was 0.3, the “combination Emax” value [17] was 0.53 and the “combination Emax” value [18] was 0.698. For the same molecule, the “combination Emax” value [19] was 0.393 and the “combination Emax” value [20] was 0.771.

For Cc1c2c(nn1C)CSCc1cc(n(C)n1)CSc1cc(c3ccccc3c1)OCCCc1c(C(=O)O)n(C)c3c-2c(Cl)ccc13 [AZD5991] + CS(=O)(=O)CCNCc1ccc(-c2ccc3ncnc(Nc4ccc(OCc5cccc(F)c5)c(Cl)c4)c3c2)o1 [Lapatinib] (first compound max 1 µM, 7x7, partner max 10 µM), the “combination Emax” value [1] was 0.237, the “combination Emax” value [2] was 1 and the “combination Emax” value [3] was 0.615. The “combination Emax” value [4] was 0.798, the “combination Emax” value [5] was 0.186 and the “combination Emax” value [6] was 0.347. The “combination Emax” value [7] was 0.245, the “combination Emax” value [8] was 0.464 and the “combination Emax” value [9] was 0.34. The “combination Emax” value [10] was 0.687, the “combination Emax” value [11] was 0.558 and the “combination Emax” value [12] was 0.833. The “combination Emax” value [13] was 0.316, the “combination Emax” value [14] was 0.862 and the “combination Emax” value [15] was 0.205. The “combination Emax” value [16] was 0.42, the “combination Emax” value [17] was 0.955 and the “combination Emax” value [18] was 0.956. For the same molecule, the “combination Emax” value [19] was 0.409 and the “combination Emax” value [20] was 0.677.

N#Cc1cnc(Nc2cc(NC[C@H]3CNCCO3)c(C(F)(F)F)cn2)cn1 [SRA737] + Nc1ccn([C@@H]2O[C@H](CO)[C@@H](O)C2(F)F)c(=O)n1 [Gemcitabine] (first compound max 10 µM, 7x7, partner max 0.3 µM) was tested, and the “combination Emax” value [1] was 0.799, the “combination Emax” value [2] was 1 and the “combination Emax” value [3] was 0.857. For the same molecule, the “combination Emax” value [4] was 0.948, the “combination Emax” value [5] was 0.918 and the “combination Emax” value [6] was 0.815. The “combination Emax” value [7] was 0.761, the “combination Emax” value [8] was 0.742 and the “combination Emax” value [9] was 0.841. For the same molecule, the “combination Emax” value [10] was 0.456, the “combination Emax” value [11] was 0.729 and the “combination Emax” value [12] was 0.6. For the same molecule, the “combination Emax” value [13] was 0.853, the “combination Emax” value [14] was 0.989 and the “combination Emax” value [15] was 0.812. The “combination Emax” value [16] was 0.907, the “combination Emax” value [17] was 0.504 and the “combination Emax” value [18] was 0.933. For the same molecule, the “combination Emax” value [19] was 0.749 and the “combination Emax” value [20] was 0.809.

With Cc1c2c(nn1C)CSCc1cc(n(C)n1)CSc1cc(c3ccccc3c1)OCCCc1c(C(=O)O)n(C)c3c-2c(Cl)ccc13 [AZD5991] + Nc1ccn([C@@H]2O[C@H](CO)[C@@H](O)C2(F)F)c(=O)n1 [Gemcitabine] (first compound max 1 µM, 7x7, partner max 0.3 µM) the “combination Emax” value [1] was 0.751, the “combination Emax” value [2] was 1 and the “combination Emax” value [3] was 0.742. For the same molecule, the “combination Emax” value [4] was 0.806, the “combination Emax” value [5] was 0.674 and the “combination Emax” value [6] was 0.468. For the same molecule, the “combination Emax” value [7] was 0.64, the “combination Emax” value [8] was 0.77 and the “combination Emax” value [9] was 0.636. For the same molecule, the “combination Emax” value [10] was 0.551, the “combination Emax” value [11] was 0.549 and the “combination Emax” value [12] was 0.58. For the same molecule, the “combination Emax” value [13] was 0.846, the “combination Emax” value [14] was 0.984 and the “combination Emax” value [15] was 0.107. The “combination Emax” value [16] was 0.595, the “combination Emax” value [17] was 0.925 and the “combination Emax” value [18] was 0.815. For the same molecule, the “combination Emax” value [19] was 0.574 and the “combination Emax” value [20] was 0.847.

— the supplement of paper PMC11061612
